Measured values reported in ChEMBL document CHEMBL3244037, “6-Aryl-4H-s-triazolo[4,3-a][1,4]benzodiazepines. Influence of 1-substitution on pharmacological activity” (J Med Chem, 1979).

Columns and labels:
Mus musculus [1] = assay: […] activity in ip dosed albino CF1 mouse assessed as potentiation of gamma-butyrolactone-induced sleep; format: functional
Mus musculus [2] = assay: Reduction of hypoxic stress in ip dosed albino CF1 mouse assessed as prolongation of hypoxic survival time; format: functional
Mus musculus [3] = assay: Inhibition of oxotremorine-induced hypothermia in ip dosed albino CF1 mouse; format: functional
Mus musculus [4] = assay: Inhibition of amphetamine aggregation toxicity in ip dosed albino CF1 mouse compound administered 1 hr prior to challenge measured after 2 hrs; format: functional
Mus musculus [5] = assay: Inhibition of apomorphine-induced cage climbing in ip dosed albino CF1 mouse compound administered prior to challenge measured for 5 mins after 5 mins of challenge; format: functional
Mus musculus [6] = assay: Anticonvulsant activity in ip dosed albino CF1 mouse assessed as inhibition of bicucullin-induced tonic extensor convulsions; format: functional
Mus musculus [7] = assay: Potentiation of yohimbine toxicity in ip dosed aggregated albino CF1 mouse; format: organism-based
Mus musculus [8] = assay: Potentiation of apomorphine-induced gnawing in ip dosed albino CF1 mouse; format: organism-based
Mus musculus [9] = assay: Anticonvulsant activity in ip dosed albino CF1 mouse assessed as protection against pentylenetetrazole-induced clonic convulsions; format: functional
Mus musculus [10] = assay: Hypothermic activity in ip dosed albino CF1 mouse assessed as effect on body temperature measured after 45 mins; format: functional; conditions: 0.75 h

SMILES | ED50 (Mus musculus [1]) | ED50 (Mus musculus [2]) | ED50 (Mus musculus [3]) | ED50 (Mus musculus [4]) | ED50 (Mus musculus [5]) | ED50 (Mus musculus [6]) | ED50 (Mus musculus [7]) | ED50 (Mus musculus [8]) | ED50 (Mus musculus [9]) | ED50 (Mus musculus [10])
CN1CCN(c2nnc3n2-c2ccc(Cl)cc2C(c2ccccc2)=NC3)CC1 | 0.7 mg/kg | > 50 mg/kg | 7.4 mg/kg | > 50 mg/kg | > 50 mg/kg | 10.5 mg/kg | > 50 mg/kg | 17.7 mg/kg | 1.6 mg/kg | > 50 mg/kg
CCN1CCN(c2nnc3n2-c2ccc(Cl)cc2C(c2ccccc2)=NC3)CC1 | 0.6 mg/kg | 25 mg/kg | 0.2 mg/kg | > 50 mg/kg | > 50 mg/kg | 1.9 mg/kg | > 50 mg/kg | 29.7 mg/kg | 0.9 mg/kg | 42 mg/kg
OCCN1CCN(c2nnc3n2-c2ccccc2C(c2ccccc2Cl)=NC3)CC1 | 3 mg/kg | 0.9 mg/kg | 40 mg/kg | > 50 mg/kg | > 50 mg/kg | 6 mg/kg | 30 mg/kg | > 50 mg/kg | 3 mg/kg | 2 mg/kg
CCN1CCN(c2nnc3n2-c2ccccc2C(c2ccccc2Cl)=NC3)CC1 | > 50 mg/kg | 4 mg/kg | 40 mg/kg | > 50 mg/kg | > 50 mg/kg | 7 mg/kg | 30 mg/kg | > 50 mg/kg | 2 mg/kg | 2 mg/kg
CN1CCN(c2nnc3n2-c2ccc(Cl)cc2C(c2ccccc2Cl)=NC3)CC1 | 0.035 mg/kg | 0.011 mg/kg | 4.4 mg/kg | > 50 mg/kg | > 50 mg/kg | 0.06 mg/kg | 35.4 mg/kg | > 50 mg/kg | 0.03 mg/kg | 3.1 mg/kg
Clc1ccccc1C1=NCc2nnc(N3CCOCC3)n2-c2ccccc21 | 0.8 mg/kg | 0.015 mg/kg | > 50 mg/kg | > 50 mg/kg | > 50 mg/kg | 10.5 mg/kg | > 50 mg/kg | > 50 mg/kg | 1.6 mg/kg | > 50 mg/kg
Clc1ccc2c(c1)C(c1ccccc1Cl)=NCc1nnc(N3CCOCC3)n1-2 | 0.04 mg/kg | 0.06 mg/kg | > 50 mg/kg | > 50 mg/kg | > 50 mg/kg | 0.05 mg/kg | > 50 mg/kg | > 50 mg/kg | 0.06 mg/kg | 6 mg/kg
CN(C)CCOc1nnc2n1-c1ccc(Cl)cc1C(c1ccccc1)=NC2 | 0.2 mg/kg | 0.8 mg/kg | 25 mg/kg | > 50 mg/kg | > 50 mg/kg | 1.1 mg/kg | > 50 mg/kg | > 50 mg/kg | 2.2 mg/kg | > 50 mg/kg
CN(C)CCSc1nnc2n1-c1ccc(Cl)cc1C(c1ccccc1)=NC2 | 1.6 mg/kg | > 50 mg/kg | > 50 mg/kg | > 50 mg/kg | > 50 mg/kg | 7.4 mg/kg | > 50 mg/kg | > 50 mg/kg | 3.1 mg/kg | > 50 mg/kg
OCc1nnc2n1-c1ccc(Cl)cc1C(c1ccccc1Cl)=NC2 | 0.01 mg/kg | 0.06 mg/kg | > 50 mg/kg | > 50 mg/kg | > 50 mg/kg | 0.02 mg/kg | > 50 mg/kg | > 50 mg/kg | 0.045 mg/kg | 7 mg/kg
CCOCc1nnc2n1-c1ccc(Cl)cc1C(c1ccccc1)=NC2 | 0.9 mg/kg | 10 mg/kg | > 50 mg/kg | > 50 mg/kg | > 50 mg/kg | 3 mg/kg | > 50 mg/kg | > 50 mg/kg | 1.4 mg/kg | 40 mg/kg
Cc1nnc2n1-c1ccc(Br)cc1C(c1ccccn1)=NC2 | 0.035 mg/kg |  | > 50 mg/kg |  |  | 0.24 mg/kg | > 50 mg/kg | > 50 mg/kg | 0.12 mg/kg | 
Cc1nnc2n1-c1ccc(Br)cc1C(c1ccccc1)=NC2 | 0.8 mg/kg | 2 mg/kg | > 50 mg/kg | > 50 mg/kg | 20 mg/kg | 0.5 mg/kg | > 50 mg/kg | > 50 mg/kg | 0.6 mg/kg | 20 mg/kg
CN(C)CCCN1c2ccccc2Sc2ccc(Cl)cc21 [CHLORPROMAZINE] | 0.5 mg/kg | > 50 mg/kg | 0.9 mg/kg | 1 mg/kg | 1 mg/kg | 50 mg/kg |  | 1 mg/kg | > 50 mg/kg | 1 mg/kg
CN(C)CCCN1c2ccccc2CCc2ccccc21.Cl [IMIPRAMINE HYDROCHLORIDE] | 18 mg/kg |  | 1 mg/kg | > 50 mg/kg |  | 21 mg/kg | 4 mg/kg | 1 mg/kg |  | > 50 mg/kg
Cc1nnc2n1-c1ccc(Cl)cc1C(c1ccccc1Cl)=NC2 [TRIAZOLAM] |  | 0.07 mg/kg | > 50 mg/kg |  |  |  | > 50 mg/kg | > 50 mg/kg | 0.07 mg/kg | 
